In brackets after ≈: the same amount, converted by molar mass. Some results are limits rather than exact numbers.

Holding throughout (format): functional
For assay [1], the system named is Enterobacter cloacae. The experiment in a line: Antibacterial activity against Enterobacter cloacae clinical isolate assessed as reduction in bacterial growth by CLSI based broth microdilution method. For orientation: Dilution methods test growth across graded concentrations, often in twofold steps.
For assay [2], the system named is Klebsiella pneumoniae. In words: Antibacterial activity against Klebsiella pneumoniae 700603 assessed as reduction in bacterial growth by CLSI based broth microdilution method.
Assay [3] relates to Pseudomonas aeruginosa. In words: Antibacterial activity against Pseudomonas aeruginosa clinical isolate. assessed as reduction in bacterial growth by CLSI based broth microdilution method.
For assay [4], the system named is Acinetobacter baumannii. In words: Antibacterial activity against Acinetobacter baumannii clinical isolate assessed as reduction in bacterial growth by CLSI based broth microdilution method.
Assay [5] concerns Pseudomonas aeruginosa. In words: Antibacterial activity against Pseudomonas aeruginosa 9027 assessed as reduction in bacterial growth by CLSI based broth microdilution method.
Assay [6] relates to Acinetobacter baumannii. The experiment in a line: Antibacterial activity against Acinetobacter baumannii ATCC 19606 assessed as reduction in bacterial growth by CLSI based broth microdilution method. To be noted: ATCC 19606 = CIP 70.34 = JCM 6841.
Assay [7] has as its system Enterobacter cloacae. The experiment in a line: Antibacterial activity against Enterobacter cloacae 700323 assessed as reduction in bacterial growth by CLSI based broth microdilution method.
Assay [8] has as its system Escherichia coli. In words: Antibacterial activity against Escherichia coli clinical isolate assessed as reduction in bacterial growth by CLSI based broth microdilution method.
Assay [9] has as its system Escherichia coli. In words: Antibacterial activity against Escherichia coli ATCC 8739 assessed as reduction in bacterial growth by CLSI based broth microdilution method.
Assay [10] deals with Klebsiella pneumoniae. The experiment in a line: Antibacterial activity against Klebsiella pneumoniae clinical isolate assessed as reduction in bacterial growth by CLSI based broth microdilution method.

On to `CC1(C)[C@H](NC(=O)/C(=N/O[C@@H](COc2ccc(NC(=O)N[C@H]3CCCNC3)cc2)C(=O)O)c2csc(N)n2)C(=O)N1OS(=O)(=O)O`, for which the MIC (in general, the lowest concentration that inhibits growth of the organism) in the assay with Enterobacter cloacae [1] was 64 µg/mL (≈ 93.5 µM); with Klebsiella pneumoniae [2], above 64 µg/mL; in the assay with Pseudomonas aeruginosa [3], 64 µg/mL (≈ 93.5 µM); in the assay with Acinetobacter baumannii [4], above 64 µg/mL; in the assay with Pseudomonas aeruginosa [5], 32 µg/mL (≈ 46.7 µM); in the assay with Acinetobacter baumannii [6], above 64 µg/mL. Moreover, the MIC with Enterobacter cloacae [7] was determined as 16 µg/mL (≈ 23.4 µM); in the assay with Escherichia coli [8] it was 32 µg/mL (≈ 46.7 µM); with Escherichia coli [9], 4 µg/mL (≈ 5.84 µM); with Klebsiella pneumoniae [10], 32 µg/mL (≈ 46.7 µM).

Regarding `CC1(C)[C@H](NC(=O)/C(=N\O[C@@H](COc2ccc(NC(=O)N[C@H]3CCCNC3)cc2)C(=O)O)c2csc(N)n2)C(=O)N1OS(=O)(=O)O`, the MIC with Enterobacter cloacae [1] was determined as 4 µg/mL (≈ 5.84 µM); with Klebsiella pneumoniae [2] it was 32 µg/mL (≈ 46.7 µM); in the assay on Pseudomonas aeruginosa [3], 2 µg/mL (≈ 2.92 µM); in the assay on Acinetobacter baumannii [4], 64 µg/mL (≈ 93.5 µM); in the assay with Pseudomonas aeruginosa [5], 2 µg/mL (≈ 2.92 µM); in the assay with Acinetobacter baumannii [6], 32 µg/mL (≈ 46.7 µM). Also, the MIC is 32 µg/mL (≈ 46.7 µM) with Enterobacter cloacae [7], 8 µg/mL (≈ 11.7 µM) in the assay on Escherichia coli [8], 0.25 µg/mL (≈ 0.365 µM) in the assay with Escherichia coli [9] and 1 µg/mL (≈ 1.46 µM) in the assay with Klebsiella pneumoniae [10].

Turning to `CC1(C)[C@H](NC(=O)/C(=N\O[C@@H](COc2ccc(NC(=O)N[C@@H]3CCCNC3)cc2)C(=O)O)c2csc(N)n2)C(=O)N1OS(=O)(=O)O`, the MIC was 2 µg/mL (≈ 2.92 µM) with Enterobacter cloacae [1]; 8 µg/mL (≈ 11.7 µM) in the assay on Klebsiella pneumoniae [2]; 8 µg/mL (≈ 11.7 µM) in the assay with Pseudomonas aeruginosa [3]; 16 µg/mL (≈ 23.4 µM) with Acinetobacter baumannii [4]; 2 µg/mL (≈ 2.92 µM) in the assay on Pseudomonas aeruginosa [5]; 8 µg/mL (≈ 11.7 µM) in the assay with Acinetobacter baumannii [6]. In addition, the MIC was 16 µg/mL (≈ 23.4 µM) with Enterobacter cloacae [7], 0.5 µg/mL (≈ 0.73 µM) with Escherichia coli [8], 0.25 µg/mL (≈ 0.365 µM) with Escherichia coli [9] and 0.5 µg/mL (≈ 0.73 µM) in the assay on Klebsiella pneumoniae [10].

On to `CC1(C)[C@H](NC(=O)/C(=N/O[C@@H](COc2ccc(NC(=O)NC3CCNCC3)cc2)C(=O)O)c2csc(N)n2)C(=O)N1OS(=O)(=O)O`, for which the MIC with Enterobacter cloacae [1] is 32 µg/mL (≈ 46.7 µM); with Klebsiella pneumoniae [2], above 64 µg/mL; in the assay with Pseudomonas aeruginosa [3], 16 µg/mL (≈ 23.4 µM); with Acinetobacter baumannii [4] it was above 64 µg/mL; in the assay with Pseudomonas aeruginosa [5] it was 16 µg/mL (≈ 23.4 µM); in the assay with Acinetobacter baumannii [6], above 64 µg/mL. Moreover, the MIC in the assay on Enterobacter cloacae [7] was above 64 µg/mL; in the assay on Escherichia coli [8], 2 µg/mL (≈ 2.92 µM); in the assay on Escherichia coli [9], 4 µg/mL (≈ 5.84 µM); with Klebsiella pneumoniae [10], 8 µg/mL (≈ 11.7 µM).

Regarding `CC1(C)[C@H](NC(=O)/C(=N\O[C@@H](COc2ccc(NC(=O)NC3CCNCC3)cc2)C(=O)O)c2csc(N)n2)C(=O)N1OS(=O)(=O)O`, the MIC in the assay with Enterobacter cloacae [1] turned out to be 4 µg/mL (≈ 5.84 µM); in the assay with Klebsiella pneumoniae [2] it was 32 µg/mL (≈ 46.7 µM); with Pseudomonas aeruginosa [3], 4 µg/mL (≈ 5.84 µM); in the assay with Acinetobacter baumannii [4], 64 µg/mL (≈ 93.5 µM); in the assay with Pseudomonas aeruginosa [5], 2 µg/mL (≈ 2.92 µM); in the assay on Acinetobacter baumannii [6] it was 16 µg/mL (≈ 23.4 µM). Also, the MIC with Enterobacter cloacae [7] worked out at 32 µg/mL (≈ 46.7 µM); in the assay on Escherichia coli [8] it was 1 µg/mL (≈ 1.46 µM); in the assay with Escherichia coli [9], 0.25 µg/mL (≈ 0.365 µM); in the assay on Klebsiella pneumoniae [10] it was 1 µg/mL (≈ 1.46 µM).

On to `CC1(C)[C@H](NC(=O)/C(=N/O[C@@H](COc2ccc(NC(=O)N[C@@H]3CCCNC3)cc2)C(=O)O)c2csc(N)n2)C(=O)N1OS(=O)(=O)O`, for which the MIC in the assay with Enterobacter cloacae [1] is 64 µg/mL (≈ 93.5 µM); in the assay on Klebsiella pneumoniae [2], above 64 µg/mL; in the assay on Pseudomonas aeruginosa [3] it was 64 µg/mL (≈ 93.5 µM); with Acinetobacter baumannii [4] it was above 64 µg/mL; with Pseudomonas aeruginosa [5], 32 µg/mL (≈ 46.7 µM); with Acinetobacter baumannii [6], above 64 µg/mL. The MIC in the assay with Enterobacter cloacae [7] was found to be 32 µg/mL (≈ 46.7 µM); in the assay on Escherichia coli [8] it was 32 µg/mL (≈ 46.7 µM); in the assay on Escherichia coli [9], 8 µg/mL (≈ 11.7 µM); in the assay on Klebsiella pneumoniae [10] it was 32 µg/mL (≈ 46.7 µM).

Values taken from ChEMBL document CHEMBL4732240, “Synthesis and antibacterial evaluation of new monobactams” (2021).
